Target: Human serum albumin (HSA) (Homo sapiens, UniProt P02768)
Experiment: fluorescence quenching titration
Format: binding

Sequence of Human serum albumin (HSA) (P02768 25-609): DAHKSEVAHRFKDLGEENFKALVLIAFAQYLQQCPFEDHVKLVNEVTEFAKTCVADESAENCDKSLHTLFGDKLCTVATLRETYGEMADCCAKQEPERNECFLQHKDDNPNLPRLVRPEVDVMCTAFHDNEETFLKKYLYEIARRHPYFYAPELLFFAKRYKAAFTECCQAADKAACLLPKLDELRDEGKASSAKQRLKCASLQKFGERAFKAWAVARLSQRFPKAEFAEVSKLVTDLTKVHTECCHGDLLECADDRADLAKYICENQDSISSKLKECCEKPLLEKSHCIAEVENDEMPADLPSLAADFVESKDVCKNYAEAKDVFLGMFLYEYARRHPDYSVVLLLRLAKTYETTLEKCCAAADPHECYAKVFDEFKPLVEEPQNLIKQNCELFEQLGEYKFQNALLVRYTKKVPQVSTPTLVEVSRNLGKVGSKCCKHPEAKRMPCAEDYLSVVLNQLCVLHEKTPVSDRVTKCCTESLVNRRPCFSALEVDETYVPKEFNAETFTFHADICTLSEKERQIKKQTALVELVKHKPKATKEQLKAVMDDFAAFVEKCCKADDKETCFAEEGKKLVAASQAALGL

Q: For `CCCCCCCCc1ccc(CCC(N)(CO)CO)cc1` [Fingolimod], which Kd is on record?
A: 235 µM
